Test results published in US20160151275A1, “METHOD AND DEVICES FOR MANUFACTURING AND DELIVERING OF AEROSOLIZED FORMULATIONS” (priority 2014, published 2016).
Like-named read-outs stand apart in the source and are kept apart here.

Details: human

## Cn1c(=O)c2c(ncn2C)n(C)c1=O [caffeine]
  bioavailability: ~10%
Inhaled or intranasal
  bioavailability: 80 to 90%
